A word on the EC50: it is the concentration that produces a half-maximal response.

The test system of this assay is RSV A2. In words: RSV inhibition (cytopathic effect) in HEp-2 cells using Viral ToxGlo assay. The assay is classed as cell-based. Particulars: human respiratory syncytial virus; RSV A2, HEp-2 cells, MOI 0.5, 72 h p.i. As to the method: Protocol for Screening Antiviral Compounds for RSV Inhibition and Cytotoxicity Using Viral ToxGlo Assay
HEp-2 cells were maintained in Eagle's minimum essential medium (EMEM) with Earle's BSS adjusted to contain 2 mM L-glutamine, 10% fetal bovine serum, 100 U/ml penicillin and 100 μg/ml streptomycin. For the purposes of the screening assay they were grown to 90% confluency, trypsinized and recovered. The trypsin was neutralised with cell culture media and cells were centrifuged at 150×g for 5 minutes before discarding the supernatant and resuspending cell pellet in assay media (EMEM with Earle's BSS adjusted to contain 2 mM L-glutamine, 2% fetal bovine serum and 100 U/ml penicillin and 100 μg/ml streptomycin). The cells were seeded into white clear-bottomed cell culture plates at a density of 1.5×10^4 cells/well in 50 μl and 4×10^3 cells/well in 25 μl for 96 well plates and 384 well plates respectively. For the media/background control column assay media only was added. Cell plates were placed in a humid chamber and incubated overnight at 37° C./5% CO2. After overnight incubation cells were checked for confluency and healthy appearance.
Test articles were made up at 10× test concentration in a maximum DMSO concentration of 10% (final assay concentration maximal 1% DMSO) and added to the cell plates in volumes of 10 μl for 96 well plates and 5 μl for 384 well plates. For cell control and virus control wells the test article solvent only was added. Virus or assay media for cytotoxicity test wells and media/cell control wells was added immediately after test articles at an MOI of 0.5, 40 or 20 μl for 96 and 384 well plates respectively. Virus suspension was prepared by thawing RSV A2 frozen stocks and diluting to the required concentration of plaque forming units in assay media on ice.
Cell plates were further incubated inside a humid chamber for 72 h p.i at 37° C./5% CO2. After the incubation period cells were observed under the microscope to check for characteristic cytopathic effect in virus control wells and healthy cells in the cell control wells. After plates were adjusted to room temperature 20/40 μl Viral ToxGlo (Promega) was added to each well of the 384/96 well cell plates. Plates were incubated at room temperature, protected from light on a plate rocker for 20 minutes before measuring the luminescence on a spectrophotometer (Biotek Synergy HTX).
As for `O=C(N=C1NCCCN1)c1ccc(Nc2cccc(S(=O)(=O)CCCC3CCCCC3)c2)c(C2CC2)c1` [compound 143, 4-{[3-(3-cyclohexylpropanesulfonyl)phenyl]amino}-3-cyclopropyl-N-(1,3-diazinan-2-ylidene)benzamide], the EC50 was 398 nM. With `O=C(N=C1NCCCN1)c1ccc(Nc2cc(C(=O)NCCC3CCCCC3)ccn2)c(C(F)(F)F)c1` [compound 111, N-(2-cyclohexylethyl)-2-({4-[(1,3-diazinan-2-ylidene)carbamoyl]-2-(trifluoromethyl)phenyl}amino)pyridine-4-carboxamide], the EC50 is 86 nM. For the molecule `O=C1CCN/C(=N\C(=O)c2ccc(Nc3cccc(C(=O)N4CCOCC4)c3)c(C3CC3)c2)N1` [compound 164, 3-cyclopropyl-4-{[3-(morpholine-4-carbonyl)phenyl]amino}-N-[(2E)-4-oxo-1,3-diazinan-2-ylidene]benzamide], the EC50 worked out at 1500 nM. In the case of `O=C(N=C1NCCCN1)c1ccc(Nc2cccc(C(=O)NC3CCOCC3)c2)c(C2CC2)c1` [compound 157, 3-cyclopropyl-N-(1,3-diazinan-2-ylidene)-4-({3-[(oxan-4-yl)carbamoyl]phenyl}amino)benzamide], the EC50 was 1030 nM.

On to `CC(C)NC(=O)c1cccc(Nc2ccc(C(=O)/N=C3\NCCCN3C)cc2C2CC2)c1` [compound 108, 3-cyclopropyl-N-[(2E)-1-methyl-1,3-diazinan-2-ylidene]-4-({3-[(propan-2-yl)carbamoyl]phenyl}amino)benzamide], for which the EC50 stood at 77 nM. With `Cc1c(Nc2ccc(C(=O)N=C3NCCCN3)cc2C2CC2)cccc1C(=O)NC1(C#N)CC1` [compound 165, 4-({3-[(1-cyanocyclopropyl)carbamoyl]-2-methylphenyl}amino)-3-cyclopropyl-N-(1,3-diazinan-2-ylidene)benzamide], the EC50 stood at 1760 nM.

Regarding `O=C(N=C1NCCCN1)c1ccc(Nc2cccc(C(=O)N3CCOCC3)c2)c(C2CC2)c1` [compound 158, 3-cyclopropyl-N-(1,3-diazinan-2-ylidene)-4-{[3-(morpholine-4-carbonyl)phenyl]amino}benzamide], the EC50 amounted to 1030 nM. `Cc1cc(C(=O)N=C2NCCCN2)ccc1Nc1cccc(OCCCC2CCCCC2)c1` [compound 156, 4-{[3-(3-cyclohexylpropoxy)phenyl]amino}-N-(1,3-diazinan-2-ylidene)-3-methylbenzamide]: the EC50 turned out to be 966 nM. As to `O=C(N=C1NCCCN1)c1ccc(Nc2cccc(C(=O)NC3CCCCC3)c2)c(C2CC2)c1` [compound 117, 4-{[3-(cyclohexylcarbamoyl)phenyl]amino}-3-cyclopropyl-N-(1,3-diazinan-2-ylidene)benzamide], the EC50 was 125 nM. For `O=C(N=C1NCCCN1)c1ccc(Nc2cccc(-c3nnn(CCCC4CCCCC4)n3)c2)c(C2CC2)c1` [compound 149, 4-({3-[2-(3-cyclohexylpropyl)-2H-1,2,3,4-tetrazol-5-yl]phenyl}amino)-3-cyclopropyl-N-(1,3-diazinan-2-ylidene)benzamide], the concentration for a half-maximal effect (EC50) amounted to 494 nM. With `CC(C)CCNC(=O)c1ccccc1Nc1ccc(C(=O)N=C2NCCCN2)cc1C1CC1` [compound 147, 3-cyclopropyl-N-(1,3-diazinan-2-ylidene)-4-({2-[(3-methylbutyl)carbamoyl]phenyl}amino)benzamide], the EC50 is 460 nM. In the case of `O=C(N=C1NCCCN1)c1ccc(Nc2ccnc(C(=O)NCCC3CCCCC3)c2)c(C2CC2)c1` [compound 138, N-(2-cyclohexylethyl)-4-({2-cyclopropyl-4-[(1,3-diazinan-2-ylidene)carbamoyl]phenyl}amino)pyridine-2-carboxamide], the EC50 was found to be 310 nM. On to `O=C(N=C1NCCCN1)c1ccc(Nc2cccc(OCCCCC3CCCCC3)c2)c(C2CC2)c1` [compound 140, 4-{[3-(4-cyclohexylbutoxy)phenyl]amino}-3-cyclopropyl-N-(1,3-diazinan-2-ylidene)benzamide], for which the EC50 worked out at 368 nM.

Source of the values: US12247018B2, “Aryl-n-aryl derivatives for treating a RNA virus infection” (ABIVAX, priority 2018, dated 2025).
